Like-named read-outs stand apart in the source and are kept apart here. Some results are limits rather than exact numbers.

Here are results for three compounds from patent EP4620956A1, “PARP1 INHIBITORS” (Zhejiang Yangli Pharmaceutical Technology Co., Ltd., priority 2022, dated 2024).

In one data set the test system is A549 PARP2-KO cell line. Nature of the data set: Cellular PARylation inhibition, high-content imaging, PARP2-KO. It is filed as cell-based. The following applies: for IC50: Homo sapiens.
The subject of the next data set is DLD-1 WT. Nature of the data set: Anti-proliferative activity (CellTiter-Glo, 7 days), DLD-1 WT. The conditions noted are these: for inhibition on cell proliferation at the highest concentration: BRCA2-normal DLD-1 cell line, 10 µM; for IC50: Homo sapiens, DLD-1, 168 h, BRCA2-normal, 7 days. The class given is cell-based, human. Here is the method:
The anti-proliferation experiment of the compounds on tumour cells adopted the most widely used ATP concentration-based detection method at present. MDA-MB-231 and MDA-MB-436 cell lines were obtained from ATCC, DLD-1 human colourectal adenocarcinoma epithelial cells and DLD-1 BRCA2^-/- cells were obtained from Horizon, and the cells were revived. After the cells were stable, the cells were collected. When the viable cell count exceeded 90%, 450-500 cells were seeded into a 384-well plate. The next day, the example compounds with serially diluted concentrations were added. Only buffer was added to the Max well, and 50 µM AZD2281 was added to the Min well. The plate was incubated for 7 days, and on the eighth day, CellTiter-Glo® reagent (Promega, G7573) was added. The plate was incubated at room temperature for 30 minutes, and the values were read on Envision (PE). The inhibition rate was calculated using the fluorescence values from the Max and Min wells, and the dose-response curve was fitted using the analysis software GraphPad Prism 5 to obtain the IC50 value of each compound for the enzyme activity.

Data set [1] has as its target T1, PARP2 (Homo sapiens, UniProt Q9UGN5).
T1 construct: purchased BPS 80502
Description: Inhibition of PARP2 enzyme activity (chemiluminescence). The class given is biochemical.

The test system of a further data set is A549 PARP1-KO cell lines. Nature of the data set: Cellular PARylation inhibition, high-content imaging, PARP1-KO. It is filed as cell-based. The following applies: for inhibition on the enzyme activity at the highest concentration: A549 PARP1-KO cell lines, 40 µM; for IC50: Homo sapiens, A549, PARylation at the cellular level.
The subject of a further data set is DLD-1 BRCA2^-/-. Description: Anti-proliferative activity (CellTiter-Glo, 7 days), DLD-1 BRCA2-/-. The class given is cell-based, human. The following applies: for BRCA2 mutation/WT selectivity fold: DLD-1 WT vs DLD-1 BRCA2^-/-; for IC50: Homo sapiens, DLD-1, 168 h, BRCA2-mutated, 7 days. (In ATP-based viability assays light output follows the ATP content of the culture.)

For data set [2], the target named is T2, PARP1 (Homo sapiens, UniProt P09874).
T2 construct: purchased BPS 80501
T2 sequence (P09874 whole entry): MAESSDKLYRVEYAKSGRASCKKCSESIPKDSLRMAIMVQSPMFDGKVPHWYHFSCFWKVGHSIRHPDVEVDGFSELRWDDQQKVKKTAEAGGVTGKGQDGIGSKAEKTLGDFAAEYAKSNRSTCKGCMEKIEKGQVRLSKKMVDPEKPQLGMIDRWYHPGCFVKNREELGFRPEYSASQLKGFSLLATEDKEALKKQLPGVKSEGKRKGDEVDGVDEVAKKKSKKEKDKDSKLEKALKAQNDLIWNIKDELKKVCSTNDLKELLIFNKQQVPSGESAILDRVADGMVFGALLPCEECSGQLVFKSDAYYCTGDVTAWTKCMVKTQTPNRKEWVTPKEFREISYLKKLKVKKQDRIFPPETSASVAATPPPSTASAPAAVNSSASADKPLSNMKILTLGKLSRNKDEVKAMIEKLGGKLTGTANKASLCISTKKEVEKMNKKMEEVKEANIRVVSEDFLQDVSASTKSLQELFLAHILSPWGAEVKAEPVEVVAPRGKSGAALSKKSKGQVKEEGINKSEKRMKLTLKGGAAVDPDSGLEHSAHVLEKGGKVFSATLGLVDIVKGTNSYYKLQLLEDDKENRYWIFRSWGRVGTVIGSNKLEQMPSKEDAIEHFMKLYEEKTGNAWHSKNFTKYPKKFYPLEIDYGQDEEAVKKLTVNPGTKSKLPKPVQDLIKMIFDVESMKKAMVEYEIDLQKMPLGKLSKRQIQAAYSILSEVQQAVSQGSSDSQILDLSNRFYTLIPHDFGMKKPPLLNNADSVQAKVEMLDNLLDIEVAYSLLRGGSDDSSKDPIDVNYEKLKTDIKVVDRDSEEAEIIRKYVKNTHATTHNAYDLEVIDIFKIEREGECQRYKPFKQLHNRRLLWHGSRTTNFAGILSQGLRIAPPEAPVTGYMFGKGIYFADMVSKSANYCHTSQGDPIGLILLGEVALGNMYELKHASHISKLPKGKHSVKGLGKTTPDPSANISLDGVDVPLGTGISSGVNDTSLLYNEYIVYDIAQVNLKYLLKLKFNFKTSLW
Nature of the data set: Inhibition of PARP1 enzyme activity (chemiluminescence). The class given is biochemical. The conditions noted are these: for PARP1/2 selectivity fold: PARP2 vs PARP1.

For data set [3], the target named is T1, PARP2. Description: DNA trapping capability of PARP2 (HTRF). The class given is biochemical. A general note: Time-resolved FRET reads energy transfer from a long-lived donor to a nearby acceptor.
Another data set concerns A549 WT. Description: Cellular PARylation inhibition, high-content imaging, A549 WT. It is filed as cell-based. The following applies: Homo sapiens, PARylation at the cellular level. The procedure: The inhibitory effect of the compounds on PARP1/PARP2 enzyme activity at the cellular level was detected using high-content imaging. A549 WT, PARP1-KO and PARP2-KO cell lines were established in-house, and the cells were revived. After the cells were stable, a sufficient number of cells were collected and 100 µL of the cell suspension was seeded into a 96-well plate. The next day, the example compounds with serially diluted concentrations were added. […] The plate was incubated for 1.5 hours (A549 WT and PARP2-KO cell lines) or 2 hours (PARP1-KO cell line). After removing the supernatant, 0.4 mM H2O2 was added and incubation was carried out for 10 minutes (A549 WT and PARP2-KO cell lines) or 1.5 mM H2O2 was added and incubation was carried out for 15 minutes (PARP1-KO cell line) to induce extensive cellular DNA damage. After removing the supernatant, the cells were fixed with 4% paraformaldehyde for 20 minutes, followed by treatment with 0.5% Triton X-100 for 20 minutes to increase the permeability of the cell membrane. After that, the cells were incubated with 3% BSA for 1 hour to prevent non-specific binding. […] The cell nuclei were stained for 30 minutes by adding 50 µL DAPI (invitrogen, R37606). After washing twice with PBS, images were acquired on OPERETTA CLS™ (PE) by scanning the cells under a 20x water objective lens in non-confocal mode, with 5 fields of view captured per well. […] The inhibition rate was calculated using the fluorescence values from the Max and Min wells, and the dose-response curve was fitted using the analysis software GraphPad Prism 5 to obtain the IC50 value of each compound for the enzyme activity.

In data set [4] the target is T2, PARP1. Nature of the data set: DNA trapping capability of PARP1 (HTRF). The class given is biochemical.
Another data set relates to MDA-MB-436. Nature of the data set: Anti-proliferative activity (CellTiter-Glo, 7 days), MDA-MB-436. The conditions noted are these: for IC50: Homo sapiens, MDA-MB-436, 168 h, BRCA1-mutated, 7 days, read-out: MDA-MB-436 IC50; for BRCA1 mutation/WT selectivity fold: MDA-MB-231 vs MDA-MB-436. It is filed as cell-based, human.
The test system of a further data set is MDA-MB-231. Description: Anti-proliferative activity (CellTiter-Glo, 7 days), MDA-MB-231. The following applies: for inhibition on cell proliferation at the highest concentration: 10 µM; for IC50: Homo sapiens. The class given is cell-based, human.
A short description of data set [5]: Pharmacokinetic study of single administration in mice. The class given is in vivo. The conditions noted are these: CD-1 mice. Here is the method:
Male CD-1 mice were used as test animals. The plasma drug concentrations of the compounds were determined and the pharmacokinetic parameters were evaluated after a single administration. Healthy adult male CD-1 mice were selected. The candidate compound was added to 10% DMSO, vortexed and sonicated. After complete dissolution, 30% PEG400 was added, followed by vortexing and sonication, and 60% double-distilled water was added to prepare a clear solution for later use. After the mice were intravenously injected at a dose of 2 mg/kg and orally administered at a dose of 10 mg/kg, whole blood was collected at 5 minutes, 15 minutes, 30 minutes, 1 hour, 2 hours, 4 hours, 8 hours, and 24 hours after administration to prepare plasma. After sample treatment, the drug concentration was analysed by LC-MS/MS method, and the pharmacokinetic parameters were calculated.

Setting [6] is: A549, PARylation at the cellular level, read-out: PARP2-KO IC50.
The mark [7] stands for this setting: PARylation at the cellular level.
Where [8] appears, read: BRCA1-normal MDA-MB-231 cell line.
The mark [9] stands for this setting: MDA-MB-231, 168 h, BRCA1-normal, 7 days, read-out: MDA-MB-231 IC50.
Setting [10] is: male, mouse, plasma, IV, 2 mg/kg.
The mark [11] stands for this setting: male, mouse, plasma, PO, 10 mg/kg.

T1 sequence (Q9UGN5 whole entry): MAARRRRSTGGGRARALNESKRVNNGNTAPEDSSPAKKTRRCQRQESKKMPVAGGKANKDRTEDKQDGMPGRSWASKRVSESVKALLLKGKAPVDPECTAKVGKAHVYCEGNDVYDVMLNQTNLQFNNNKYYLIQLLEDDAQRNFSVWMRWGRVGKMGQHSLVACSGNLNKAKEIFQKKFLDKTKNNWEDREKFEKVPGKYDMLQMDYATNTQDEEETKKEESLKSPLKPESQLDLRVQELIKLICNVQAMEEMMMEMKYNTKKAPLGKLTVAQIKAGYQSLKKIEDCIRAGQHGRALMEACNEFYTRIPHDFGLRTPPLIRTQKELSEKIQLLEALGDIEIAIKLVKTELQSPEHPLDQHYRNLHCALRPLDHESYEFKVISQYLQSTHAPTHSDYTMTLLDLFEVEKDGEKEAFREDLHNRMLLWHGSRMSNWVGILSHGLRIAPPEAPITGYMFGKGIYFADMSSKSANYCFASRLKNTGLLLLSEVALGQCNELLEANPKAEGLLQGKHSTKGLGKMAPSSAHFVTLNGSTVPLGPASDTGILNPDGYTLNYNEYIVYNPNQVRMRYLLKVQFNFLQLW

Broadly, the IC50 is the concentration that gives 50% inhibition. In general, EC50 refers to the midpoint of the concentration-response curve. Read a high EC50 as lower potency in that assay. For the compound `CCc1c(N)c2ncc(CN3CCN(c4ccc(C(=O)NOC)nc4F)CC3)cc2[nH]c1=O` [Example 2, 5-(4-((8-Amino-7-ethyl-6-oxo-5,6-dihydro-1,5-naphthyridin-3-yl)methyl)piperazin-1-yl)-6-fluoro-N-methoxypicolinamide], the IC50 is 61.7 nM with A549 PARP2-KO cell line (setting [6]); above 10000 nM in the data set with DLD-1 WT; 17 nM at PARP2 [1]; above 40000 nM with A549 PARP1-KO cell lines; 8.62 nM in the data set with DLD-1 BRCA2^-/-; 0.39 nM at PARP1 [2]. In addition, the results for the half-maximal inhibitory concentration (IC50) with A549 WT, in the data set with MDA-MB-436 and in the data set with MDA-MB-231 (setting [9]) were 10.5 nM, 5.74 nM and above 10000 nM, respectively. For the same compound, the “PARP1 KO/PARP2 KO selectivity fold” value with A549 PARP2-KO cell line (setting [7]) is above 648 fold. The “inhibition on cell proliferation at the highest concentration” value (shortened to “inhibition on cell proliferation”) in the data set with DLD-1 WT and in the data set on MDA-MB-231 (setting [8]) was “no detectable inhibition” each time. The “inhibition on the enzyme activity at the highest concentration” value in the data set on A549 PARP1-KO cell lines was “no detectable inhibition”. The “BRCA2 mutation/WT selectivity fold” value in the data set with DLD-1 BRCA2^-/- is listed as >1,162 fold. Besides, the PARP1/2 selectivity fold on PARP1 [2] turned out to be 44 fold. The values for the EC50 on PARP2 [3] and at PARP1 [4] were 338 nM and 3.73 nM, respectively. In addition, in the data set on MDA-MB-436, the “BRCA1 mutation/WT selectivity fold” value is on record as >1,742 fold.
A word on the clearance: it is the volume of plasma or blood freed of the substance per unit of time. The low end stands for inefficient removal, the high end for efficient removal. As usually defined, the half-life is the time in which the quantity being followed falls by half. Higher therefore signals slow loss. Usually bioavailability stands for dose-corrected exposure relative to a reference, in per cent. In the case of `CCc1c(N)c2ncc(CN3CCN(c4ccc(C(=O)NC)nc4)CC3)cc2[nH]c1=O` [Example 1, 5-(4-((8-Amino-7-ethyl-6-oxo-5,6-dihydro-1,5-naphthyridin-3-yl)methyl)piperazin-1-yl)-N-methylpicolinamide], the IC50 with A549 PARP2-KO cell line (A549, read-out: PARP2-KO IC50) is 72.2 nM; in the data set with DLD-1 WT, above 10000 nM; against PARP2 [1] it was 52.8 nM; in the data set on A549 PARP1-KO cell lines, 47700 nM; with DLD-1 BRCA2^-/-, 18.6 nM; against PARP1 [2], 0.49 nM. The concentration for half-maximal inhibition (IC50) with A549 WT was 14.4 nM; in the data set on MDA-MB-436, 16.4 nM; in the data set on MDA-MB-231 (setting [9]), above 10000 nM. Besides, the “PARP1 KO/PARP2 KO selectivity fold” value in the data set on A549 PARP2-KO cell line (setting [7]) worked out at 660 fold. The “inhibition on cell proliferation” value in the data set on DLD-1 WT and in the data set with MDA-MB-231 (setting [8]) was “no detectable inhibition” each time. Besides, the “BRCA2 mutation/WT selectivity fold” value in the data set with DLD-1 BRCA2^-/- is on record as above 538 fold. In addition, the PARP1/2 selectivity fold at PARP1 [2] amounted to 108 fold. The EC50 on PARP2 [3] worked out at 168 nM; on PARP1 [4], 1.78 nM. Moreover, the Exposure inf in data set [5] (IV, 2 mg/kg) came out at 38.222 µg·h/mL; in data set [5] (PO, 10 mg/kg) it was 191.246 µg·h/mL. The Exposure last came out at 38.128 µg·h/mL in [5] (IV, 2 mg/kg) and 189.56 µg·h/mL in [5] (PO, 10 mg/kg). In [5] (PO, 10 mg/kg), this compound yielded a Peak concentration of 15700 ng/mL. Further, the Time to peak in data set [5] (PO, 10 mg/kg) came out at 2 h. This compound returned a clearance in data set [5] (setting [10]) of 0.872 mL/min/kg. For the same compound, the half-life is 2.81 h in data set [5] (setting [10]) and 3.51 h in data set [5] (setting [11]). Further, the Vd in [5] (male, mouse, plasma, IV, 2 mg/kg, read-out: Apparent volume of distribution) was determined as 0.218 L/kg. Moreover, the bioavailability in data set [5] (setting [11]) amounted to 100%. Further, in the data set on MDA-MB-436, the “BRCA1 mutation/WT selectivity fold” value was above 608 fold.
For `CCc1c(N)c2ncc(CN3CCN(c4ccc(C(=O)NC)nc4F)CC3)cc2[nH]c1=O` [Example 3, 5-(4-((8-Amino-7-ethyl-6-oxo-5,6-dihydro-1,5-naphthyridin-3-yl)methyl)piperazin-1-yl)-6-fluoro-N-methylpicolinamide], the half-maximal inhibitory concentration (IC50) in the data set with A549 PARP2-KO cell line (setting [6]) is 16.2 nM; in the data set with DLD-1 WT, above 10000 nM; on PARP2 [1], 8.7 nM; with A549 PARP1-KO cell lines, above 40000 nM; with DLD-1 BRCA2^-/- it was 5.07 nM; at PARP1 [2] it was 0.41 nM. Besides, the IC50 with A549 WT amounted to 5.9 nM; with MDA-MB-436, 1.27 nM; in the data set on MDA-MB-231 (setting [9]) it was 7400 nM; with MDA-MB-231 (BRCA1-normal MDA-MB-231 cell line, read-out: IC50), 7400 nM. Also, the “PARP1 KO/PARP2 KO selectivity fold” value in the data set with A549 PARP2-KO cell line (setting [7]) is recorded as above 2468 fold. Besides, the “inhibition on cell proliferation” value in the data set on DLD-1 WT is recorded as “no detectable inhibition”. The “inhibition on the enzyme activity at the highest concentration” value in the data set with A549 PARP1-KO cell lines was “no detectable inhibition”. The “BRCA2 mutation/WT selectivity fold” value with DLD-1 BRCA2^-/- is >1,972 fold. Further, the PARP1/2 selectivity fold at PARP1 [2] is reported as 21 fold; on PARP1 [4], 64 fold. Also, the EC50 on PARP2 [3] was 249 nM; on PARP1 [4], 3.87 nM. Further, the “BRCA1 mutation/WT selectivity fold” value with MDA-MB-436 is given as 5,828 fold.
